What all share (type): biochemical
The target of assay [1] is T1, WT BTK (Homo sapiens, UniProt Q06187). Briefly: Caliper-based kinase assay, WT BTK. The following applies: 0.5 nM enzyme, ATP 16 μM, room temperature 3 h; read-out: WT BTK IC50 (nM) (irreversible inhibition). The protocol:
(§1) A Caliper-based kinase assay (Caliper Life Sciences, Hopkinton, Mass.) was used to measure inhibition of WT and […] Btk kinase activity of a compound of the present disclosure. […] The reaction was then terminated with EDTA, final concentration 20 mM and the phosphorylated reaction product was quantified on a Caliper Desktop Profiler (Caliper LabChip 3000).

The next assay has as its target C481S Btk (Homo sapiens, UniProt Q06187, C481S). Description: Caliper-based kinase assay, C481S BTK. The conditions noted are these: 0.5 nM enzyme, ATP 16 μM, room temperature 3 h; read-out: C481S BTK IC50 (nM) (reversible inhibition). As for the experimental part: as §1
Assay [2] deals with T1, WT BTK. Description: In vitro dialysis assay (irreversibility assay), WT BTK. The conditions noted are these: reversible or irreversible/covalent inhibition after 24 h dialysis. As for the experimental part:
The compound-enzyme complex was dialyzed against the same buffer supplemented with 40 mM ATP for 24 hr. Cumulative dialysis factor>160,000×. After dialysis, the BTK activity was measured in the presence […] and 1 mM substrate peptide and compared to that in non-dialyzed samples. Assay buffer: 100 mM HEPES, pH7.5; […]; 5 mM MgCl2; 1 mM DTT. In this study, Ibrutiib (a FDA approved irreversible BTK inhibitor) was used as a positive control and Saurosporine (a reversible BTK inhibitor) was used as a negative control.

Each structure is given as a SMILES string.

T1 sequence (Q06187 whole entry): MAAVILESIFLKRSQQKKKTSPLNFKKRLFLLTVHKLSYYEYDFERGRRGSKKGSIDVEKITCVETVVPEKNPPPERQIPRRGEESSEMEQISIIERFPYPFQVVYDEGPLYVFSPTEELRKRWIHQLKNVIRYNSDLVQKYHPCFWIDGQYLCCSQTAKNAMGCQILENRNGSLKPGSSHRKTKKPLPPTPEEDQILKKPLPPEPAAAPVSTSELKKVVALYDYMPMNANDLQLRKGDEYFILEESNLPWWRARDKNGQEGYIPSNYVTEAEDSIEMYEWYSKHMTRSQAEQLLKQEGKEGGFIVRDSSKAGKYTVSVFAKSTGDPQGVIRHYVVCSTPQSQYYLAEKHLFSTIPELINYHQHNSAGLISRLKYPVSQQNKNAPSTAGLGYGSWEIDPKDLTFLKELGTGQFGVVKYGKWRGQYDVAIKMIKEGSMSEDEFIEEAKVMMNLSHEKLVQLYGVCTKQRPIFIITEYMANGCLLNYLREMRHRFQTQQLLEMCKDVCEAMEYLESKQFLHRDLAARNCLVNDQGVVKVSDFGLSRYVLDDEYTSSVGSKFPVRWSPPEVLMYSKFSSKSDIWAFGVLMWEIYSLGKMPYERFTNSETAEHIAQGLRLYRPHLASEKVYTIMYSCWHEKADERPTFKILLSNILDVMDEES
Sequence of C481S Btk (Q06187 whole entry C481S): as the sequence (Q06187 whole entry) above, with C481S counted along it

The IC50 is the point on the concentration scale where inhibition reaches its midpoint. For `C=CC(=O)Nc1cc(Nc2nc(-c3ccnc(N4CCn5c(cc6c5CC(C)(C)C6)C4=O)c3CO)cn(C)c2=O)ccc1N1CCN(C2COC2)C[C@@H]1C` [Example 3, (S)—N-(5-((6-(2-(7,7-dimethyl-1-oxo-1,3,4,6,7,8-hexahydro-2H-cyclopenta[4,5]pyrrolo[1,2-a]pyrazin-2-yl)-3-(hydroxymethyl)pyridin-4-yl)-4-methyl-3-oxo-3,4-dihydropyrazin-2-yl)amino)-2-(2-methyl-4-(oxetan-3-yl)piperazin-1-yl)phenyl)acrylamide], the IC50 was determined as 0.14 nM on WT BTK [1] and 0.72 nM at C481S Btk. Moreover, the “Conclusion (WT BTK)” value on WT BTK [2] is “Irreversible/covalent inhibition”.
For the compound `C=CC(=O)Nc1cc(Nc2nc(-c3ccnc(N4CCn5c(cc6c5CC(C)(C)C6)C4=O)c3CO)cn(C)c2=O)cc(F)c1N1CCN(C2COC2)C[C@@H]1C` [Example 30, N-(5-[[6-(2-[4,4-dimethyl-9-oxo-1,10-diazatricyclo[6.4.0.0^[2,6]]dodeca-2(6),7-dien-10-yl]-3-(hydroxymethyl)pyridin-4-yl)-4-methyl-3-oxopyrazin-2-yl]amino]-3-fluoro-2-[(2S)-2-methyl-4-(oxetan-3-yl)piperazin-1-yl]phenyl)prop-2-enamide], the half-maximal inhibitory concentration (IC50) on WT BTK [1] stood at 1.58 nM; at C481S Btk it was 1.6 nM.
As to `C=CC(=O)Nc1cc(Nc2nc(-c3ccnc(N4CCc5c(sc6c5CC(C)(C)C6)C4=O)c3CO)cn(C)c2=O)ccc1N1CCN(C2COC2)C[C@@H]1C` [Example 34, N-(5-[[6-(2-[4,4-dimethyl-9-oxo-7-thia-10-azatricyclo[6.4.0.0^[2,6]]dodeca-1(8),2(6)-dien-10-yl]-3-(hydroxymethyl)pyridin-4-yl)-4-methyl-3-oxopyrazin-2-yl]amino]-2-[(2S)-2-methyl-4-(oxetan-3-yl)piperazin-1-yl]phenyl)prop-2-enamide], on C481S Btk, the IC50 is 0.46 nM. Besides, the “Conclusion (WT BTK)” value at WT BTK [2] was “Irreversible/covalent inhibition”.
As to `C=CC(=O)Nc1cc(Nc2nc(-c3ccnc(N4CCn5c(cc6c5CC(C)(C)C6)C4=O)c3C)cn(C)c2=O)ccc1N1CCN(C2CCOCC2)C[C@@H]1C` [Example 40, N-(5-[[6-(2-[4,4-dimethyl-9-oxo-1,10-diazatricyclo[6.4.0.0^[2,6]]dodeca-2(6),7-dien-10-yl]-3-methylpyridin-4-yl)-4-methyl-3-oxopyrazin-2-yl]amino]-2-[(2S)-2-methyl-4-(oxan-4-yl)piperazin-1-yl]phenyl)prop-2-enamide], the IC50 on WT BTK [1] turned out to be 0.083 nM. In addition, the “Conclusion (WT BTK)” value on WT BTK [2] is given as “Irreversible/covalent inhibition”.
With `C=CC(=O)Nc1cc(Nc2nc(-c3ccnc(N4CCc5c(sc6c5CCCC6)C4=O)c3C)cn(C)c2=O)ccc1N1CCN(C2COC2)C[C@@H]1C` [Example 44, (S)—N-(2-(2-methyl-4-(oxetan-3-yl)piperazin-1-yl)-5-((4-methyl-6-(3-methyl-2-(1-oxo-3,4,5,6,7,8-hexahydrobenzo [4, 5]thieno [2,3-c]pyridin-2(1H)-yl)pyridin-4-yl)-3-oxo-3,4-dihydropyrazin-2-yl)amino)phenyl) acrylamide], at WT BTK [1], the concentration for half-maximal inhibition (IC50) stood at 0.98 nM. Moreover, the “Conclusion (WT BTK)” value at WT BTK [2] is reported as “Irreversible/covalent inhibition”.
With `C=CC(=O)Nc1cc(Nc2nc(-c3ccnc(N4CCn5c(cc6c5CC(C)(C)C6)C4=O)c3C)cn(C)c2=O)ccc1N1CCN(C2COC2)CC1(C)C` [Example 45, N-[2-[2,2-dimethyl-4-(oxetan-3-yl)piperazin-1-yl]-5-[[6-(2-[4,4-dimethyl-9-oxo-1,10-diazatricyclo[6.4.0.0^[2,6]]dodeca-2(6),7-dien-10-yl]-3-methylpyridin-4-yl)-4-methyl-3-oxopyrazin-2-yl]amino]phenyl]prop-2-enamide], on WT BTK [1], the half-maximal inhibitory concentration (IC50) is 0.36 nM. The “Conclusion (WT BTK)” value at WT BTK [2] is listed as “Irreversible/covalent inhibition”.
Take `C=CC(=O)Nc1cc(Nc2nc(-c3ccnc(N4CCn5c(cc6c5CC(C)(C)C6)C4=O)c3C)cn(C)c2=O)cnc1N1CCN(C2COC2)C[C@@H]1C` [Example 46, N-(5-[[6-(2-[4,4-dimethyl-9-oxo-1,10-diazatricyclo[6.4.0.0^[2,6]]dodeca-2(6),7-dien-10-yl]-3-methylpyridin-4-yl)-4-methyl-3-oxopyrazin-2-yl]amino]-2-[(2S)-2-methyl-4-(oxetan-3-yl)piperazin-1-yl]pyridin-3-yl)prop-2-enamide]: on WT BTK [1], the concentration for half-maximal inhibition (IC50) was 0.16 nM. Moreover, the “Conclusion (WT BTK)” value on WT BTK [2] is “Irreversible/covalent inhibition”.
`C=CC(=O)Nc1cc(Nc2nc(-c3ccnc(N4CCn5c(cc6c5CC(C)(C)C6)C4=O)c3CO)cn(C)c2=O)ccc1N1CCN(C2CCOCC2)CC1C` (centres unmarked) [Example 47, N-(5-((6-(2-(7,7-dimethyl-1-oxo-1,3,4,6,7,8-hexahydro-2H-cyclopenta[4,5]pyrrolo[1,2-a]pyrazin-2-yl)-3-(hydroxymethyl)pyridin-4-yl)-4-methyl-3-oxo-3,4-dihydropyrazin-2-yl)amino)-2-(2-methyl-4-(tetrahydro-2H-pyran-4-yl)piperazin-1-yl)phenyl)acrylamide]: the half-inhibitory concentration (IC50) at WT BTK [1] was determined as 0.12 nM. For the same compound, at WT BTK [2], the “Conclusion (WT BTK)” value is on record as “Irreversible/covalent inhibition”.
On the same counts, the results for `C=CC(=O)Nc1cc(Nc2nc(-c3ccnc(N4CCn5c(cc6c5CC(C)(C)C6)C4=O)c3CO)cn(C)c2=O)ccc1N1CCN(C2CCOCC2)C[C@@H]1C(F)(F)F` [Example 48-R, N-(5-[[6-(2-[4,4-dimethyl-9-oxo-1,10-diazatricyclo[6.4.0.0^[2,6]]dodeca-2(6),7-dien-10-yl]-3-(hydroxymethyl)pyridin-4-yl)-4-methyl-3-oxopyrazin-2-yl]amino]-2-[(2R)-4-(oxan-4-yl)-2-(trifluoromethyl)piperazin-1-yl]phenyl)prop-2-enamide] are 0.065 nM and “Irreversible/covalent inhibition”.
`C=CC(=O)Nc1cc(Nc2nc(-c3ccnc(N4CCn5c(cc6c5CC(C)(C)C6)C4=O)c3C)cn(C)c2=O)ccc1N1CCN(C2CCOCC2)C[C@@H]1C(F)(F)F` [Example 53-R, N-(5-[[6-(2-[4,4-dimethyl-9-oxo-1,10-diazatricyclo[6.4.0.0^[2,6]]dodeca-2(6),7-dien-10-yl]-3-methylpyridin-4-yl)-4-methyl-3-oxopyrazin-2-yl]amino]-2-[(2R)-4-(oxan-4-yl)-2-(trifluoromethyl)piperazin-1-yl]phenyl)prop-2-enamide]: on WT BTK [1], the IC50 was 0.4 nM. Further, on WT BTK [2], the “Conclusion (WT BTK)” value is listed as “Irreversible/covalent inhibition”.
As to `C=CC(=O)Nc1cc(Nc2nc(-c3ccnc(N4CCn5c(cc6c5CC(C)(C)C6)C4=O)c3C)cn(C)c2=O)ccc1N1CCN(C2CCOCC2)C[C@H]1C(F)(F)F` [Example 53-S, N-(5-[[6-(2-[4,4-dimethyl-9-oxo-1,10-diazatricyclo[6.4.0.0^[2,6]]dodeca-2(6),7-dien-10-yl]-3-methylpyridin-4-yl)-4-methyl-3-oxopyrazin-2-yl]amino]-2-[(2S)-4-(oxan-4-yl)-2-(trifluoromethyl)piperazin-1-yl]phenyl)prop-2-enamide], the IC50 at WT BTK [1] is 1 nM. At WT BTK [2], the “Conclusion (WT BTK)” value was “Irreversible/covalent inhibition”.
Take `C=CC(=O)Nc1cc(Nc2nc(-c3ccnc(N4CCc5c(sc6c5CCCC6)C4=O)c3C)cn(C)c2=O)ccc1N1CCN(C2CCOCC2)C[C@@H]1C(F)(F)F` [Example 54-R, N-(5-[[4-methyl-6-(3-methyl-2-[6-oxo-8-thia-5-azatricyclo[7.4.0.0^[2,7]]trideca-1(9), 2(7)-dien-5-yl]pyridin-4-yl)-3-oxopyrazin-2-yl]amino]-2-[(2R)-4-(oxan-4-yl)-2-(trifluoromethyl)piperazin-1-yl]phenyl)prop-2-enamide]: the half-inhibitory concentration (IC50) on WT BTK [1] stood at 2.9 nM. The “Conclusion (WT BTK)” value on WT BTK [2] is reported as “Irreversible/covalent inhibition”.
With `C=CC(=O)Nc1cc(Nc2nc(-c3ccnc(N4CCc5c(sc6c5CCCC6)C4=O)c3C)cn(C)c2=O)ccc1N1CCN(C2CCOCC2)C[C@H]1C(F)(F)F` [Example 54-S, N-(5-[[4-methyl-6-(3-methyl-2-[6-oxo-8-thia-5-azatricyclo[7.4.0.0^[2,7]]trideca-1(9), 2(7)-dien-5-yl]pyridin-4-yl)-3-oxopyrazin-2-yl]amino]-2-[(2S)-4-(oxan-4-yl)-2-(trifluoromethyl)piperazin-1-yl]phenyl)prop-2-enamide], the IC50 on WT BTK [1] came to 4.4 nM. Besides, the “Conclusion (WT BTK)” value at WT BTK [2] is listed as “Irreversible/covalent inhibition”.
In the same order, the values of `C=CC(=O)Nc1cc(Nc2nc(-c3ccnc(N4CCc5c(sc6c5CCCC6)C4=O)c3CO)cn(C)c2=O)ccc1N1CCN(C2CCOCC2)C[C@@H]1C(F)(F)F` [Example 55-R, N-[5-([6-[3-(hydroxymethyl)-2-[6-oxo-8-thia-5-azatricyclo[7.4.0.0^[2,7]]trideca-1(9), 2(7)-dien-5-yl]pyridin-4-yl]-4-methyl-3-oxopyrazin-2-yl]amino)-2-[(2R)-4-(oxan-4-yl)-2-(trifluoromethyl)piperazin-1-yl]phenyl]prop-2-enamide] are 0.24 nM and “Irreversible/covalent inhibition”.

The values are drawn from patent publication US20220363689A1, “INHIBITOR OF BTK AND MUTANTS THEREOF” (Newave Pharmaceutical Inc., priority 2019, published 2022).
